± gives the uncertainty stated by the source.
Test: xn = mol fraction of the nth substance listed
Settings: 100 kPa

Structure (SMILES): CC[n+]1ccn(C)c1.O=S(=O)([O-])O + CC[C@H](C)[C@H](N)C(=O)O + O
- viscosity (293.15 K, x2 = 0, x1 = 0.0005421): 1.046 ± 0.033 mPa·s
- viscosity (293.15 K, x2 = 0, x1 = 0.0009056): 1.068 ± 0.033 mPa·s
- viscosity (293.15 K, x2 = 0, x1 = 0.001263): 1.073 ± 0.032 mPa·s
- viscosity (293.15 K, x2 = 0.0004219, x1 = 0.0009052): 1.093 ± 0.032 mPa·s
- viscosity (293.15 K, x2 = 0.0004673, x1 = 0.001263): 1.101 ± 0.032 mPa·s
- viscosity (293.15 K, x2 = 0.0005036, x1 = 0.0005418): 1.075 ± 0.033 mPa·s
- viscosity (293.15 K, x2 = 0.0007653, x1 = 0.0009049): 1.113 ± 0.032 mPa·s
- viscosity (293.15 K, x2 = 0.0008312, x1 = 0.0005417): 1.094 ± 0.033 mPa·s
- viscosity (293.15 K, x2 = 0.000832, x1 = 0.001262): 1.122 ± 0.032 mPa·s
- viscosity (293.15 K, x2 = 0.0009488, x1 = 0.0005416): 1.1 ± 0.033 mPa·s
- viscosity (293.15 K, x2 = 0.00107, x1 = 0.0009046): 1.131 ± 0.033 mPa·s
- viscosity (293.15 K, x2 = 0.001216, x1 = 0.001262): 1.145 ± 0.032 mPa·s
- viscosity (293.15 K, x2 = 0.001364, x1 = 0.001262): 1.154 ± 0.032 mPa·s
- viscosity (293.15 K, x2 = 0.001515, x1 = 0.0009042): 1.157 ± 0.033 mPa·s
- viscosity (293.15 K, x2 = 0.001572, x1 = 0.0005413): 1.136 ± 0.033 mPa·s
- viscosity (293.15 K, x2 = 0.001693, x1 = 0.0005412): 1.143 ± 0.033 mPa·s
- viscosity (293.15 K, x2 = 0.001746, x1 = 0.001261): 1.176 ± 0.033 mPa·s
- viscosity (293.15 K, x2 = 0.001796, x1 = 0.000904): 1.174 ± 0.033 mPa·s
- viscosity (293.15 K, x2 = 0.002205, x1 = 0.0009036): 1.198 ± 0.06 mPa·s
- viscosity (293.15 K, x2 = 0.002228, x1 = 0.0005409): 1.174 ± 0.033 mPa·s
- viscosity (293.15 K, x2 = 0.002256, x1 = 0.001261): 1.206 ± 0.033 mPa·s
- viscosity (293.15 K, x2 = 0.002728, x1 = 0.00126): 1.23 ± 0.11 mPa·s
- viscosity (298.15 K, x2 = 0, x1 = 0.0005421): 0.929 ± 0.032 mPa·s
- viscosity (298.15 K, x2 = 0, x1 = 0.0009056): 0.949 ± 0.032 mPa·s
- viscosity (298.15 K, x2 = 0, x1 = 0.001263): 0.966 ± 0.032 mPa·s
- viscosity (298.15 K, x2 = 0.0004219, x1 = 0.0009052): 0.961 ± 0.032 mPa·s
- viscosity (298.15 K, x2 = 0.0004673, x1 = 0.001263): 0.979 ± 0.032 mPa·s
- viscosity (298.15 K, x2 = 0.0005036, x1 = 0.0005418): 0.943 ± 0.032 mPa·s
- viscosity (298.15 K, x2 = 0.0007653, x1 = 0.0009049): 0.97 ± 0.032 mPa·s
- viscosity (298.15 K, x2 = 0.0008312, x1 = 0.0005417): 0.953 ± 0.032 mPa·s
- viscosity (298.15 K, x2 = 0.000832, x1 = 0.001262): 0.989 ± 0.032 mPa·s
- viscosity (298.15 K, x2 = 0.0009488, x1 = 0.0005416): 0.956 ± 0.032 mPa·s
- viscosity (298.15 K, x2 = 0.00107, x1 = 0.0009046): 0.979 ± 0.032 mPa·s
- viscosity (298.15 K, x2 = 0.001216, x1 = 0.001262): 0.999 ± 0.032 mPa·s
- viscosity (298.15 K, x2 = 0.001364, x1 = 0.001262): 1.003 ± 0.032 mPa·s
- viscosity (298.15 K, x2 = 0.001515, x1 = 0.0009042): 0.991 ± 0.032 mPa·s
- viscosity (298.15 K, x2 = 0.001572, x1 = 0.0005413): 0.973 ± 0.032 mPa·s
- viscosity (298.15 K, x2 = 0.001693, x1 = 0.0005412): 0.977 ± 0.032 mPa·s
- viscosity (298.15 K, x2 = 0.001746, x1 = 0.001261): 1.013 ± 0.032 mPa·s
- viscosity (298.15 K, x2 = 0.001796, x1 = 0.000904): 0.999 ± 0.032 mPa·s
- viscosity (298.15 K, x2 = 0.002205, x1 = 0.0009036): 1.01 ± 0.049 mPa·s
- viscosity (298.15 K, x2 = 0.002228, x1 = 0.0005409): 0.991 ± 0.033 mPa·s
- viscosity (298.15 K, x2 = 0.002256, x1 = 0.001261): 1.027 ± 0.032 mPa·s
- viscosity (298.15 K, x2 = 0.002728, x1 = 0.00126): 1.04 ± 0.087 mPa·s
- viscosity (303.15 K, x2 = 0, x1 = 0.0005421): 0.824 ± 0.031 mPa·s
- viscosity (303.15 K, x2 = 0, x1 = 0.0009056): 0.843 ± 0.031 mPa·s
- viscosity (303.15 K, x2 = 0, x1 = 0.001263): 0.866 ± 0.032 mPa·s
- viscosity (303.15 K, x2 = 0.0004219, x1 = 0.0009052): 0.853 ± 0.031 mPa·s
- viscosity (303.15 K, x2 = 0.0004673, x1 = 0.001263): 0.878 ± 0.032 mPa·s
- viscosity (303.15 K, x2 = 0.0005036, x1 = 0.0005418): 0.837 ± 0.031 mPa·s
- viscosity (303.15 K, x2 = 0.0007653, x1 = 0.0009049): 0.862 ± 0.032 mPa·s
- viscosity (303.15 K, x2 = 0.0008312, x1 = 0.0005417): 0.845 ± 0.031 mPa·s
- viscosity (303.15 K, x2 = 0.000832, x1 = 0.001262): 0.887 ± 0.032 mPa·s
- viscosity (303.15 K, x2 = 0.0009488, x1 = 0.0005416): 0.848 ± 0.031 mPa·s
- viscosity (303.15 K, x2 = 0.00107, x1 = 0.0009046): 0.87 ± 0.032 mPa·s
- viscosity (303.15 K, x2 = 0.001216, x1 = 0.001262): 0.897 ± 0.032 mPa·s
- viscosity (303.15 K, x2 = 0.001364, x1 = 0.001262): 0.901 ± 0.032 mPa·s
- viscosity (303.15 K, x2 = 0.001515, x1 = 0.0009042): 0.881 ± 0.032 mPa·s
- viscosity (303.15 K, x2 = 0.001572, x1 = 0.0005413): 0.864 ± 0.031 mPa·s
- viscosity (303.15 K, x2 = 0.001693, x1 = 0.0005412): 0.867 ± 0.031 mPa·s
- viscosity (303.15 K, x2 = 0.001746, x1 = 0.001261): 0.91 ± 0.032 mPa·s
- viscosity (303.15 K, x2 = 0.001796, x1 = 0.000904): 0.888 ± 0.032 mPa·s
- viscosity (303.15 K, x2 = 0.002205, x1 = 0.0009036): 0.898 ± 0.032 mPa·s
- viscosity (303.15 K, x2 = 0.002228, x1 = 0.0005409): 0.881 ± 0.032 mPa·s
- viscosity (303.15 K, x2 = 0.002256, x1 = 0.001261): 0.923 ± 0.032 mPa·s
- viscosity (303.15 K, x2 = 0.002728, x1 = 0.00126): 0.935 ± 0.032 mPa·s
- viscosity (308.15 K, x2 = 0, x1 = 0.0005421): 0.75 ± 0.031 mPa·s
- viscosity (308.15 K, x2 = 0, x1 = 0.0009056): 0.759 ± 0.031 mPa·s
- viscosity (308.15 K, x2 = 0, x1 = 0.001263): 0.78 ± 0.031 mPa·s
- viscosity (308.15 K, x2 = 0.0004219, x1 = 0.0009052): 0.769 ± 0.031 mPa·s
- viscosity (308.15 K, x2 = 0.0004673, x1 = 0.001263): 0.79 ± 0.031 mPa·s
- viscosity (308.15 K, x2 = 0.0005036, x1 = 0.0005418): 0.762 ± 0.031 mPa·s
- viscosity (308.15 K, x2 = 0.0007653, x1 = 0.0009049): 0.777 ± 0.031 mPa·s
- viscosity (308.15 K, x2 = 0.0008312, x1 = 0.0005417): 0.77 ± 0.031 mPa·s
- viscosity (308.15 K, x2 = 0.000832, x1 = 0.001262): 0.799 ± 0.031 mPa·s
- viscosity (308.15 K, x2 = 0.0009488, x1 = 0.0005416): 0.773 ± 0.031 mPa·s
- viscosity (308.15 K, x2 = 0.00107, x1 = 0.0009046): 0.785 ± 0.031 mPa·s
- viscosity (308.15 K, x2 = 0.001216, x1 = 0.001262): 0.808 ± 0.031 mPa·s
- viscosity (308.15 K, x2 = 0.001364, x1 = 0.001262): 0.812 ± 0.031 mPa·s
- viscosity (308.15 K, x2 = 0.001515, x1 = 0.0009042): 0.795 ± 0.031 mPa·s
- viscosity (308.15 K, x2 = 0.001572, x1 = 0.0005413): 0.789 ± 0.031 mPa·s
- viscosity (308.15 K, x2 = 0.001693, x1 = 0.0005412): 0.792 ± 0.031 mPa·s
- viscosity (308.15 K, x2 = 0.001746, x1 = 0.001261): 0.821 ± 0.031 mPa·s
- viscosity (308.15 K, x2 = 0.001796, x1 = 0.000904): 0.802 ± 0.031 mPa·s
- viscosity (308.15 K, x2 = 0.002205, x1 = 0.0009036): 0.812 ± 0.031 mPa·s
- viscosity (308.15 K, x2 = 0.002228, x1 = 0.0005409): 0.805 ± 0.031 mPa·s
- viscosity (308.15 K, x2 = 0.002256, x1 = 0.001261): 0.833 ± 0.031 mPa·s
- viscosity (308.15 K, x2 = 0.002728, x1 = 0.00126): 0.844 ± 0.031 mPa·s
- viscosity (313.15 K, x2 = 0, x1 = 0.0005421): 0.678 ± 0.031 mPa·s
- viscosity (313.15 K, x2 = 0, x1 = 0.0009056): 0.684 ± 0.031 mPa·s
- viscosity (313.15 K, x2 = 0, x1 = 0.001263): 0.697 ± 0.031 mPa·s
- viscosity (313.15 K, x2 = 0.0004219, x1 = 0.0009052): 0.693 ± 0.031 mPa·s
- viscosity (313.15 K, x2 = 0.0004673, x1 = 0.001263): 0.708 ± 0.031 mPa·s
- viscosity (313.15 K, x2 = 0.0005036, x1 = 0.0005418): 0.69 ± 0.031 mPa·s
- viscosity (313.15 K, x2 = 0.0007653, x1 = 0.0009049): 0.701 ± 0.031 mPa·s
- viscosity (313.15 K, x2 = 0.0008312, x1 = 0.0005417): 0.697 ± 0.031 mPa·s
- viscosity (313.15 K, x2 = 0.000832, x1 = 0.001262): 0.716 ± 0.031 mPa·s
- viscosity (313.15 K, x2 = 0.0009488, x1 = 0.0005416): 0.7 ± 0.031 mPa·s
- viscosity (313.15 K, x2 = 0.00107, x1 = 0.0009046): 0.708 ± 0.031 mPa·s
- viscosity (313.15 K, x2 = 0.001216, x1 = 0.001262): 0.724 ± 0.031 mPa·s
- viscosity (313.15 K, x2 = 0.001364, x1 = 0.001262): 0.728 ± 0.031 mPa·s
- viscosity (313.15 K, x2 = 0.001515, x1 = 0.0009042): 0.717 ± 0.031 mPa·s
- viscosity (313.15 K, x2 = 0.001572, x1 = 0.0005413): 0.714 ± 0.031 mPa·s
- viscosity (313.15 K, x2 = 0.001693, x1 = 0.0005412): 0.717 ± 0.031 mPa·s
- viscosity (313.15 K, x2 = 0.001746, x1 = 0.001261): 0.736 ± 0.031 mPa·s
- viscosity (313.15 K, x2 = 0.001796, x1 = 0.000904): 0.724 ± 0.031 mPa·s
- viscosity (313.15 K, x2 = 0.002205, x1 = 0.0009036): 0.733 ± 0.031 mPa·s
- viscosity (313.15 K, x2 = 0.002228, x1 = 0.0005409): 0.729 ± 0.031 mPa·s
- viscosity (313.15 K, x2 = 0.002256, x1 = 0.001261): 0.747 ± 0.031 mPa·s
- viscosity (313.15 K, x2 = 0.002728, x1 = 0.00126): 0.758 ± 0.031 mPa·s

Reference: the CheMixHub ionic liquid set
